Consider 104 compounds from the Kinase Knowledgebase extract (Sharma et al. 2016).

The test deals with MAPK14 (UniProt Q16539). The test can be described thus: Enzyme Assay.
Sequence of MAPK14 (Q16539 whole entry, looked up): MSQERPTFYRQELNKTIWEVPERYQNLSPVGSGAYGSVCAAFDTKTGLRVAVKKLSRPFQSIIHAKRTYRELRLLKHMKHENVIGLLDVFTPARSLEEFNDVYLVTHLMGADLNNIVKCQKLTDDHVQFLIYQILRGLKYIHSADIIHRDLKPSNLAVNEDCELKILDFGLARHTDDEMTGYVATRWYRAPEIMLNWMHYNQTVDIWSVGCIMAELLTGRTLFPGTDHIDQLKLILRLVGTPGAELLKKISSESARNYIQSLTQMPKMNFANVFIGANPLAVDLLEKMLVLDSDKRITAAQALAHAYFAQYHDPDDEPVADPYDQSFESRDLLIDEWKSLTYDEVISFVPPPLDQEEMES
As a reminder, the IC50 is the point on the concentration scale where inhibition reaches its midpoint. Read a high IC50 as a need for much substance. As to `O=C(Nc1ccc(F)c(COc2cnccn2)c1)c1cc(On2nnc3ccccc32)nc(Cl)n1`, the IC50 was under 1000 µM.
Under `O=C(Nc1ccc(F)c(COc2cnccn2)c1)Nc1ncc(-c2ccc(Cl)cc2)s1` stands under 200 µM.
Under `O=C(CC1CCOCC1)Nc1cnc(OCc2c(Cl)cccc2Cl)cn1` stands under 200 µM; under `O=C(CN1CCOCC1)Nc1cnc(OCc2c(Cl)cccc2Cl)cn1`, under 200 µM; under `Nc1ncccc1OCn1nnc2ccccc21`, under 1000 µM.
Under `Cc1cc(C)c2nc(NC(=O)Nc3ccc(F)c(COc4cnccn4)c3)sc2c1` stands under 1000 µM; under `CN1CCN(CC(=O)Nc2cnc(OCc3c(Cl)cccc3Cl)cn2)CC1`, under 20 µM; under `O=C(Nc1ccc(F)c(COc2cnccn2)c1)Nc1n[nH]cc1-c1ccccc1`, under 20 µM.
The compound `O=C(Nc1ccccc1)C(=O)Nc1ccc(Cl)c(COc2cccnc2)c1` gave a 50% inhibitory concentration (IC50) of under 2 µM.
Regarding `O=C(Nc1ccc(Cl)c(COc2cccnc2)c1)c1ccccc1`, the IC50 is under 20 µM.
Compound `Clc1cccc(Cl)c1COc1cnc(NCc2ccccc2)cn1` came in with an IC50 of under 20 µM.
Then `Nc1cccc(COc2cncc(Cl)n2)c1`, with under 1000 µM; and `Cc1nc2sccn2c1C(=O)Nc1ccc(F)c(COc2cnccn2)c1`, with under 2 µM.
Then `O=C(Nc1ccc(Cl)c(COc2cccnc2)c1)c1cccc(C(F)(F)F)c1`, with under 20 µM.
Then `CC(C)(C)C(=O)Nc1cnc(OCc2c(Cl)cccc2Cl)cn1`, with under 200 µM; and `CN1CCCC(CNC(=O)c2cnc(OCc3c(Cl)cccc3Cl)cn2)C1` (centres undefined), with under 1000 µM; and `Nc1ncccc1OCc1ccccc1C(F)(F)F`, with under 100 µM.
The compound `Clc1cccc(Cl)c1COc1cnc(N2CCOCC2)cn1` yielded a half-maximal inhibitory concentration (IC50) of under 200 µM.
Under `Nc1cnc(OCc2ccccc2)cn1` stands under 1000 µM; under `CC(C)(C)c1cc(NC(=O)Nc2ccc(Cl)c(COc3cccnc3)c2)n(-c2ccccc2)n1`, under 2 µM; under `Nc1ccc(Cl)c(COc2cnccn2)c1`, under 1000 µM.
Take `Nc1ncccc1OCc1cc(NC(=O)c2ccccc2)ccc1Cl`: the IC50 was under 20 µM.
For `Cc1nc(-c2cc(C(=O)Nc3ccc(F)c(COc4cnccn4)c3)no2)cs1`, the IC50 is under 200 µM.
Under `Nc1ncccc1OCc1ccc(F)c(F)c1` stands under 1000 µM.
Under `O=C(Nc1ccccc1)Nc1ccc(Cl)c(COc2cccnc2)c1` stands under 20 µM; under `C=CS(=O)(=O)Nc1cnc(OCc2c(Cl)cccc2Cl)cn1`, under 200 µM; under `Nc1ncccc1OCc1cccc(Cl)c1`, under 1000 µM.
Then `O=C(Nc1ccc(F)c(COc2cnccn2)c1)Oc1cccc(C(F)(F)F)c1`, with under 20 µM.
The compound `NC(=O)Nc1ccc(Cl)c(COc2cccnc2)c1` came in with an IC50 of under 20 µM.
Then `CC(C)(C)c1ccc2[nH]cc(CC(=O)Nc3ccc(F)c(COc4cnccn4)c3)c2c1`, with under 200 µM.
The compound `CC(Nc1cnc(OCc2c(Cl)cccc2Cl)cn1)c1ccccc1` (centres undefined) gave a concentration for half-maximal inhibition (IC50) of under 20 µM.
Then `CC(C)(C)c1ccc(-n2nc(C3CC3)cc2NC(=O)Nc2ccc(F)c(COc3cnccn3)c2)cc1`, with under 200 µM.
`CC(C)(C)c1cc(NC(=O)Nc2ccc(F)c(COc3cnccn3)c2)n(-c2ccccc2)n1`: the IC50 was under 2 µM.
In turn, `O=C(Nc1ccc(F)c(COc2cnccn2)c1)c1cccc(Oc2ccccc2)c1` came in with an IC50 of under 2 µM.
Under `c1cncc(OCc2cccc3ccccc23)c1` stands under 1000 µM; under `c1ccc(CNc2cccc(COc3cnccn3)c2)cc1`, under 1000 µM.
Then `CC(C)(C)c1cc(NC(=O)Nc2ccc(F)c(COc3cnccn3)c2)n(-c2ccncc2)n1`, with under 2 µM; and `CC(C)(C)c1cc(NC(=O)Nc2ccc(F)c(COc3cnccn3)c2)n(Cc2ccccc2)n1`, with under 2 µM.
For `O=C(Nc1ccc(F)c(COc2cnccn2)c1)Nc1nc(-c2ccccc2)cs1`, the IC50 was under 20 µM.
Under `OCCNc1ccc(OCc2ccccc2)cn1` stands under 200 µM; under `Clc1cnc(OCc2c(Cl)cccc2Cl)cn1`, under 1000 µM; under `Clc1cccc(Cl)c1COc1cnc(NC2CCOCC2)cn1`, under 200 µM.
As to `Clc1cccc(Cl)c1COc1cnccn1`, the 50% inhibitory concentration (IC50) was under 200 µM.
The compound `CC(C)(C)c1cc(C(=O)Nc2ccc(F)c(COc3cnccn3)c2)n(Cc2ccc(F)cc2)n1` showed an IC50 of under 20 µM.
In turn, `Nc1ncc(OCc2cccc3ccccc23)nc1Br` showed a half-maximal inhibitory concentration (IC50) of under 1000 µM.
Under `O=C(Nc1ccc(F)c(COc2cnccn2)c1)Nc1cc(C2CCCO2)nn1-c1ccc(F)cc1` (centres undefined) stands under 2 µM; under `O=C(NCCO)c1cnc(OCc2c(Cl)cccc2Cl)cn1`, under 1000 µM; under `O=C(Nc1ccc(F)c(COc2cnccn2)c1)Nc1nnc(-c2ccccc2)s1`, under 200 µM.
Then `Nc1ncccc1OCc1ccc(F)cc1F`, with under 1000 µM.
Compound `O=C(Nc1ccc(F)c(COc2cnccn2)c1)c1cccc(S(=O)(=O)N2CCOCC2)c1` displayed an IC50 of under 2 µM.
Then `Cc1ccc(-n2nc(C(C)(C)C)cc2NC(=O)Nc2ccc(F)c(COc3cnccn3)c2)cc1`, with under 2 µM; and `Nc1ncccc1OCc1c(F)cc(F)cc1F`, with under 1000 µM; and `O=S(=O)(c1ccccc1)N(c1ccc(Cl)c(COc2cccnc2)c1)S(=O)(=O)c1ccccc1`, with under 1000 µM.
Under `Nc1ncccc1OCc1csc2ccccc12` stands under 1000 µM.
Under `Nc1ncccc1OCc1cccc(C(=O)NCc2cccc3ccccc23)c1` stands under 1000 µM; under `O=C(Nc1ccc(F)c(COc2cnccn2)c1)Nc1nnc(C2CCCO2)s1` (centres undefined), under 2 µM.
In turn, `Cc1noc(-c2ccccc2)c1C(=O)Nc1ccc(F)c(COc2cnccn2)c1` came in with a half-maximal inhibitory concentration (IC50) of under 200 µM.
Then `O=C(Nc1ccc(Cl)c(COc2cccnc2)c1)Oc1ccccc1`, with under 20 µM; and `Cc1cccc(COc2cccnc2N)c1F`, with under 1000 µM.
Under `CC(C)(C)c1cc(NC(=O)Nc2ccc(F)c(COc3cnccn3)c2)n(-c2ccc(F)cc2F)n1` stands under 2 µM; under `CC(C)(C)c1cc(NC(=O)Oc2cccc(COc3cnccn3)c2)n(-c2ccccc2)n1`, under 200 µM; under `O=C(Nc1ccc(F)c(COc2cnccn2)c1)Nc1cc(-c2ccccc2)nn1-c1ccccc1`, under 2 µM.
`CNc1cnc(OCc2c(Cl)cccc2Cl)cn1` displayed an IC50 of under 200 µM.
Then `CC(C)(C)c1cccc(C(=O)Nc2ccc(Cl)c(COc3cccnc3)c2)c1`, with under 2 µM; and `C[S+]([O-])c1nnc(NC(=O)Nc2ccc(F)c(COc3cnccn3)c2)s1` (centres undefined), with under 1000 µM.
Under `Cc1ccc2ccccc2c1COc1cccnc1N` stands under 100 µM; under `O=C(Nc1ccc(Cl)c(COc2cnccn2)c1)c1ccnc(N2CCOCC2)c1`, under 2 µM; under `Nc1ncccc1OCc1ccc(Cl)c(F)c1`, under 200 µM.
Then `Nc1ncccc1OCc1c(F)cccc1Cl`, with under 1000 µM.
With `O=C(Nc1ccc(F)c(COc2cccnc2)c1)c1cc(F)cc(N2CCOCC2)c1`, the IC50 was under 2 µM.
Then `Nc1ncc(OCc2ccccc2)nc1Br`, with under 1000 µM.
On to `O=C(Nc1ccc(F)c(COc2cnccn2)c1)Nc1nnc(CC2CC2)s1`, for which the IC50 is under 2 µM.
Then `c1cc(COc2cnccn2)cc(Nc2nc3ccccc3o2)c1`, with under 200 µM; and `Cc1cc(-n2nc(C(C)(C)C)cc2NC(=O)Nc2ccc(F)c(COc3cnccn3)c2)nc(C)n1`, with under 2 µM.
Under `O=C(Nc1ccc(Cl)c(COc2cccnc2)c1)c1ccnc(N2CCOCC2)c1` stands under 2 µM; under `CC(C)(C)c1ccc(C(=O)Nc2ccc(F)c(COc3cnccn3)c2)cc1`, under 20 µM; under `O=C1c2ccccc2CN1c1ccc(F)c(COc2cccnc2)c1`, under 1000 µM.
Compound `CC(C)(C)n1nc(-c2ccccc2)cc1NC(=O)Nc1ccc(F)c(COc2cnccn2)c1` displayed a 50% inhibitory concentration (IC50) of under 20 µM.
Under `CC(C)(C)c1cc(NC(=O)Nc2ccc(F)c(COc3cnccn3)c2)n(-c2ccc(Cl)cc2)n1` stands under 2 µM; under `Nc1ncccc1OCc1cccc(-c2ccccc2)c1`, under 200 µM.
With `O=C(Nc1ccc(F)c(COc2cnccn2)c1)c1nnc(-c2ccccc2)o1`, the IC50 was under 2 µM.
As for `O=C(Nc1cccc(COc2cccnc2)c1)c1ccccc1`, the IC50 is under 200 µM.
Under `O=C(Nc1ccc(F)c(COc2cnccn2)c1)c1ccc2ccccc2c1` stands under 20 µM.
As for `Nc1ncccc1OCc1ccc(Cl)cc1Cl`, the half-inhibitory concentration (IC50) is under 1000 µM.
`Nc1cnc(OCc2c(Cl)cccc2Cl)cn1` came in with a 50% inhibitory concentration (IC50) of under 200 µM.
Under `Nc1ncccc1OCc1cccc2ccoc12` stands under 1000 µM; under `Nc1ncccc1OCc1ccc(F)cc1Cl`, under 1000 µM; under `CC(C)(C)c1ccccc1NC(=O)Nc1ccc(F)c(COc2cccnc2)c1`, under 20 µM.
Then `CC(C)(C)c1csc(NC(=O)Nc2ccc(F)c(COc3cnccn3)c2)n1`, with under 20 µM.
Then `Nc1ncccc1OCc1cccc(Cl)c1F`, with under 1000 µM.
On to `CC(=O)Nc1ccc(Cl)c(COc2cccnc2)c1`, for which the IC50 is under 1000 µM.
Under `Cc1nc(-c2cccc(C(=O)Nc3ccc(F)c(COc4cnccn4)c3)c2)cs1` stands under 2 µM; under `O=S(=O)(Nc1ccc(Cl)c(COc2cccnc2)c1)c1ccccc1`, under 200 µM.
As to `CC(C)(CO)C(=O)Nc1cnc(OCc2c(Cl)cccc2Cl)cn1`, the IC50 was under 200 µM.
Then `Nc1nccnc1OCc1c(Cl)cccc1Cl`, with under 1000 µM; and `O=C(Nc1ccc(F)c(COc2cccnc2)c1)c1cccc(F)c1`, with under 200 µM; and `Nc1ncccc1OCc1cccc(OC(F)(F)F)c1`, with under 10000 µM.
Under `CSc1nnc(NC(=O)Nc2ccc(F)c(COc3cnccn3)c2)s1` stands under 200 µM; under `Nc1ncccc1OCc1cccc(C(=O)NCC2CC2)c1`, under 1000 µM.
Under `CCN(CC)C(=O)Nc1cnc(OCc2c(Cl)cccc2Cl)cn1` stands under 200 µM; under `O=C(Nc1ccc(F)c(COc2cnccn2)c1)Nc1nnc(Cc2ccccc2)s1`, under 2 µM; under `Clc1cccc(Cl)c1COc1ccc(N2CCOCC2)nc1`, under 1000 µM.
For `O=C1c2ccccc2C(O)N1c1ccc(Cl)c(COc2cccnc2)c1` (centres undefined), the 50% inhibitory concentration (IC50) was under 200 µM.
In the case of `O=C(Nc1ccc(Cl)c(COc2cnccn2)c1)c1ccccc1`, the IC50 was under 20 µM.
